In patent publication US20020187514A1 (priority 1999, published 2002):

How the values were obtained:
[1] = molecular target: T1, Vasopressin 1 (Rattus norvegicus, UniProt P30560); experiment: biochemical; assay type: binding; details: read-out: Pass 1 (10^−5 M) % Inhibition
T1 construct: no other source notation after assay name denotes animal cell or animal tissue source; from tissue

[2] = molecular target: Protein Tyrosine Phosphatase, PTP-CD45 (Homo sapiens, UniProt P08575); experiment: Protein Tyrosine Phosphatase, PTP-CD45 (Human); substrate pNPP; assay type: biochemical; details: read-out: Pass 1 (10^−5 M) % Inhibition
[3] = molecular target: T2, Neurokinin, NK2 (NKA) (Homo sapiens, UniProt P21452); experiment: biochemical; assay type: binding; details: read-out: Pass 1 (10^−5 M) % Inhibition
T2 construct: expressed in transfected cells

[4] = molecular target: T3, Serotonin, 5HT7 (Homo sapiens, UniProt P34969); experiment: biochemical; assay type: binding; details: read-out: Pass 1 (10^−5 M) % Inhibition
T3 construct: expressed in transfected cells

[5] = molecular target: T4, Adrenergic, Beta 1 (Homo sapiens, UniProt P08588); experiment: Adrenergic, Beta 1 (Human Recombinant); [125I]Iodocyanopindolol; assay type: binding; details: read-out: Pass 1 (10^−5 M) % Inhibition
T4 construct: expressed in transfected cells

[6] = tested on: Inositol Triphosphate, IP3; experiment: Inositol Triphosphate, IP3; [3H]IP3; assay type: binding; details: 10^−5 M
[7] = molecular target: Adenosine Transporter (Homo sapiens, UniProt Q99808); experiment: biochemical; assay type: binding; details: read-out: Pass 1 (10^−5 M) % Inhibition
[8] = molecular target: T5, Serotonin, 5HT6 (Homo sapiens, UniProt P50406); experiment: biochemical; assay type: binding; details: read-out: Pass 1 (10^−5 M) % Inhibition
T5 construct: expressed in transfected cells

[9] = tested on: GABA Transaminase; experiment: GABA Transaminase; substrate [14C]-GABA; assay type: biochemical
[10] = tested on: Glutamic Acid Decarboxylase; experiment: Glutamic Acid Decarboxylase; substrate [14C]Glutamic acid; assay type: biochemical; details: 10^−5 M
[11] = molecular target: GABA A, BDZ, alpha 1, central (Bos taurus, UniProt P08219+P22300); experiment: biochemical; details: read-out: Pass 1 (10^−5 M) % Inhibition
[12] = molecular target: Testosterone (cytosolic) (UniProt P15207); assay type: binding
[13] = molecular target: T6, Adenosine, A2A (Homo sapiens, UniProt P29274); experiment: biochemical; assay type: binding; details: read-out: Pass 1 (10^−5 M) % Inhibition
T6 construct: expressed in transfected cells

[14] = molecular target: Muscarinic, M2 (Homo sapiens, UniProt P08172); experiment: biochemical; details: read-out: Pass 1 (10^−5 M) % Inhibition
[15] = molecular target: T7, Cannabinoid, CB1 (Homo sapiens, UniProt P21554); experiment: Cannabinoid, CB1 (Human recombinant); [3H]-CP55940; assay type: binding; details: read-out: Pass 1 (10^−5 M) % Inhibition
T7 construct: expressed in transfected cells

[16] = tested on: Ahenylate Cyclase, Forskolin; experiment: Ahenylate Cyclase, Forskolin; [3H]Forskolin; assay type: binding; details: 10^−5 M
[17] = molecular target: Opiate, Delta 1 (UniProt P33533); assay type: binding
[18] = tested on: Oxytocin; assay type: binding; details: 10^−5 M
[19] = molecular target: Calcium Channel, Type L (Benzothiazepine Site) (Rattus norvegicus, UniProt P22002); experiment: Calcium Channel, Type L (Benzothiazepine Site); [3H]Diltiazem, cis(+); assay type: binding; details: read-out: Pass 1 (10^−5 M) % Inhibition
[20] = molecular target: T8, Elastase (Homo sapiens, UniProt P08246); experiment: Elastase (Human); substrate MeO-Suc-Ala-Ala-Pro-Val-pNA; assay type: biochemical; details: read-out: Pass 1 (10^−5 M) % Inhibition
T8 construct: from human cell lines; endogenous in cells

[21] = tested on: Protein Kinase C, PDBu; assay type: binding
[22] = reported in vivo pharmacology, cited from earlier work
[23] = tested on: Thyrotropin Releasing Hormone, TRH; experiment: Thyrotropin Releasing Hormone, TRH; [3H]-(3MeHis2)TRH; assay type: binding; details: 10^−5 M
[24] = tested on: Calcium Channel, Type N; assay type: binding
[25] = tested on: Glutamate, MK-801 Site; experiment: Glutamate, MK-801 Site; [3H]MK-801; assay type: binding; details: 10^−5 M
[26] = tested on: Angiotensin II, AT2; assay type: binding; details: 10^−5 M
[27] = molecular target: T9, Monoamine Oxidase B, Peripheral (Rattus norvegicus, UniProt P19643); experiment: Monoamine Oxidase B, Peripheral; substrate [14C]Phenylethylamine; assay type: biochemical; details: read-out: Pass 1 (10^−5 M) % Inhibition
T9 construct: no other source notation after assay name denotes animal cell or animal tissue source; from tissue

[28] = tested on: GABA-B; assay type: binding
[29] = molecular target: T10, Histamine, H2 (Cavia porcellus, UniProt P47747); experiment: biochemical; assay type: binding; details: read-out: Pass 1 (10^−5 M) % Inhibition
T10 construct: no other source notation after assay name denotes animal cell or animal tissue source; from tissue; host or cells: animal cell or animal tissue, not specified

[30] = molecular target: Norepinephrine Transporter (Rattus norvegicus, UniProt Q9WTR4); experiment: biochemical; assay type: binding; details: read-out: Pass 1 (10^−5 M) % Inhibition
[31] = molecular target: Neuropeptide, NPY2 (Homo sapiens, UniProt P49146); experiment: biochemical; assay type: binding; details: read-out: Pass 1 (10^−5 M) % Inhibition
[32] = molecular target: T11, Sigma 1 (Cavia porcellus, UniProt Q60492); experiment: Sigma 1; [3H]-(+)-Pentazocine; assay type: binding, guinea pig
T11 construct: Fresh guinea pig whole brain was obtained following decapitation; from tissue; host or cells: guinea pig whole brain membranes

[33] = molecular target: Muscarinic, M1 (Homo sapiens, UniProt P11229); experiment: biochemical; details: read-out: Pass 1 (10^−5 M) % Inhibition
[34] = molecular target: Muscarinic, M3 (Homo sapiens, UniProt P20309); experiment: biochemical; details: read-out: Pass 1 (10^−5 M) % Inhibition
[35] = molecular target: Serotonin, 5HT1A (Homo sapiens, UniProt P08908); experiment: biochemical; assay type: binding; details: read-out: Pass 1 (10^−5 M) % Inhibition
[36] = molecular target: T12, Endothelin, ET-B (Homo sapiens, UniProt P24530); experiment: biochemical; assay type: binding; details: read-out: Pass 1 (10^−5 M) % Inhibition
T12 construct: expressed in transfected cells

[37] = tested on: Histamine, H3; experiment: Histamine, H3; [3H]N-a-MeHistamine; assay type: binding; details: 10^−5 M
[38] = molecular target: Neuropeptide, NPY1 (Homo sapiens, UniProt P25929); experiment: Neuropeptide, NPY1 (Human); [125I]PYY; assay type: binding; details: read-out: Pass 1 (10^−5 M) % Inhibition
[39] = molecular target: T13, Bradykinin, BK2 (Homo sapiens, UniProt P30411); experiment: Bradykinin, BK2 (Human recombinant); [3H]-Bradykinin; assay type: binding; details: read-out: Pass 1 (10^−5 M) % Inhibition
T13 construct: expressed in transfected cells

[40] = molecular target: Dopamine Transporter (Cavia porcellus, UniProt H0WCX4); experiment: biochemical; assay type: binding, Guinea Pig
[41] = read-out: Pass 1 (10^−5 M) % Inhibition

Chain of Dopamine Transporter (H0WCX4 1-619): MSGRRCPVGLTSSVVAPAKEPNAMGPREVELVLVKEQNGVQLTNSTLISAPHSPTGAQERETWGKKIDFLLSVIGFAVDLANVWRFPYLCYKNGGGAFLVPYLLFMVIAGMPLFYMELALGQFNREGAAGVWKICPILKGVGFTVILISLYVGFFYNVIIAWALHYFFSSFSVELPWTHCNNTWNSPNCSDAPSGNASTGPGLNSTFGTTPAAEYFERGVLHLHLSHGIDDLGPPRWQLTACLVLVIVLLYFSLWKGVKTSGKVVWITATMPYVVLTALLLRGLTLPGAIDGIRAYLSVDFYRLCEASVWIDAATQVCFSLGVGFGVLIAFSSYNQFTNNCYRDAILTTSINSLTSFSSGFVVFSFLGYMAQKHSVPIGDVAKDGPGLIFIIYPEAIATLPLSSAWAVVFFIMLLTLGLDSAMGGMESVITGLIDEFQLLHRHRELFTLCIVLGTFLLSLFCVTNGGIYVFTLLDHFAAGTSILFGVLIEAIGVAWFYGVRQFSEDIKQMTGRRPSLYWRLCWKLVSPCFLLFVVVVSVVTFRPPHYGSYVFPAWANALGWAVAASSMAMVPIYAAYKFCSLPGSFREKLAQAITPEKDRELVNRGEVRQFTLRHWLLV
T11 sequence (Q60492 whole entry): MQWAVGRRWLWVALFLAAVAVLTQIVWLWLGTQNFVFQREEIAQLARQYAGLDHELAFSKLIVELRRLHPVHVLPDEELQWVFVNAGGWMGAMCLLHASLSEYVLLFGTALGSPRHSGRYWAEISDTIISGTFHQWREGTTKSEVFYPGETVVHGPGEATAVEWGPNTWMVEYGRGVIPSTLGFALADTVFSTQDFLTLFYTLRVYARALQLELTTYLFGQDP
Chain of Muscarinic, M3 (P20309 whole entry): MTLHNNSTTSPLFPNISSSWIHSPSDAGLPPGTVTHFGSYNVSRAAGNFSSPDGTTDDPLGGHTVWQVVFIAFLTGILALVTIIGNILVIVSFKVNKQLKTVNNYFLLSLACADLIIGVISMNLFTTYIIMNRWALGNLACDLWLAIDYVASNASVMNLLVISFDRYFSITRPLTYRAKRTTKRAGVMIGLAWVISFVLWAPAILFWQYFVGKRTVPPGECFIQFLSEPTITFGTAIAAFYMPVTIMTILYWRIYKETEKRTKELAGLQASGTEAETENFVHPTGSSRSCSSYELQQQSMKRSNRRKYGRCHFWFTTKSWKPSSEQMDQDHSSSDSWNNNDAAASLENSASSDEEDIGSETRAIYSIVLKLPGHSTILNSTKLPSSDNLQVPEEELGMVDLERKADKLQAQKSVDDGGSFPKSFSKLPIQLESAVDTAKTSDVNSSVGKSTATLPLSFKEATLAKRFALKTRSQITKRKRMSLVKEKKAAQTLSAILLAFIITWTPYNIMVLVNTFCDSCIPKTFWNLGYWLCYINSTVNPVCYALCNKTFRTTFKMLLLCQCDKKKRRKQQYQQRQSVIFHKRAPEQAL
Chain of Muscarinic, M1 (P11229 whole entry): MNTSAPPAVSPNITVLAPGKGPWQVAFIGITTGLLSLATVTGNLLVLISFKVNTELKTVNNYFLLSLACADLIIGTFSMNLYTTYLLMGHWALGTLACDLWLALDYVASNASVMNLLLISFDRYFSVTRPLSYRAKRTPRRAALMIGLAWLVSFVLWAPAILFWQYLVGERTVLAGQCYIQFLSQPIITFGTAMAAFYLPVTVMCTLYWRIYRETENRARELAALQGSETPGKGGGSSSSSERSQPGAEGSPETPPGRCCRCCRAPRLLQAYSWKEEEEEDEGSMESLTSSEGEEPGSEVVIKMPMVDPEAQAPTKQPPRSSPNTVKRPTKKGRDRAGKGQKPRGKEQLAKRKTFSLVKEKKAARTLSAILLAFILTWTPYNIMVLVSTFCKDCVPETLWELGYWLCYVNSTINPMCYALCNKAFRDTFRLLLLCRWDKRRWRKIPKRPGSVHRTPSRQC
Chain of Calcium Channel, Type L (Benzothiazepine Site) (P22002 whole entry, looked up): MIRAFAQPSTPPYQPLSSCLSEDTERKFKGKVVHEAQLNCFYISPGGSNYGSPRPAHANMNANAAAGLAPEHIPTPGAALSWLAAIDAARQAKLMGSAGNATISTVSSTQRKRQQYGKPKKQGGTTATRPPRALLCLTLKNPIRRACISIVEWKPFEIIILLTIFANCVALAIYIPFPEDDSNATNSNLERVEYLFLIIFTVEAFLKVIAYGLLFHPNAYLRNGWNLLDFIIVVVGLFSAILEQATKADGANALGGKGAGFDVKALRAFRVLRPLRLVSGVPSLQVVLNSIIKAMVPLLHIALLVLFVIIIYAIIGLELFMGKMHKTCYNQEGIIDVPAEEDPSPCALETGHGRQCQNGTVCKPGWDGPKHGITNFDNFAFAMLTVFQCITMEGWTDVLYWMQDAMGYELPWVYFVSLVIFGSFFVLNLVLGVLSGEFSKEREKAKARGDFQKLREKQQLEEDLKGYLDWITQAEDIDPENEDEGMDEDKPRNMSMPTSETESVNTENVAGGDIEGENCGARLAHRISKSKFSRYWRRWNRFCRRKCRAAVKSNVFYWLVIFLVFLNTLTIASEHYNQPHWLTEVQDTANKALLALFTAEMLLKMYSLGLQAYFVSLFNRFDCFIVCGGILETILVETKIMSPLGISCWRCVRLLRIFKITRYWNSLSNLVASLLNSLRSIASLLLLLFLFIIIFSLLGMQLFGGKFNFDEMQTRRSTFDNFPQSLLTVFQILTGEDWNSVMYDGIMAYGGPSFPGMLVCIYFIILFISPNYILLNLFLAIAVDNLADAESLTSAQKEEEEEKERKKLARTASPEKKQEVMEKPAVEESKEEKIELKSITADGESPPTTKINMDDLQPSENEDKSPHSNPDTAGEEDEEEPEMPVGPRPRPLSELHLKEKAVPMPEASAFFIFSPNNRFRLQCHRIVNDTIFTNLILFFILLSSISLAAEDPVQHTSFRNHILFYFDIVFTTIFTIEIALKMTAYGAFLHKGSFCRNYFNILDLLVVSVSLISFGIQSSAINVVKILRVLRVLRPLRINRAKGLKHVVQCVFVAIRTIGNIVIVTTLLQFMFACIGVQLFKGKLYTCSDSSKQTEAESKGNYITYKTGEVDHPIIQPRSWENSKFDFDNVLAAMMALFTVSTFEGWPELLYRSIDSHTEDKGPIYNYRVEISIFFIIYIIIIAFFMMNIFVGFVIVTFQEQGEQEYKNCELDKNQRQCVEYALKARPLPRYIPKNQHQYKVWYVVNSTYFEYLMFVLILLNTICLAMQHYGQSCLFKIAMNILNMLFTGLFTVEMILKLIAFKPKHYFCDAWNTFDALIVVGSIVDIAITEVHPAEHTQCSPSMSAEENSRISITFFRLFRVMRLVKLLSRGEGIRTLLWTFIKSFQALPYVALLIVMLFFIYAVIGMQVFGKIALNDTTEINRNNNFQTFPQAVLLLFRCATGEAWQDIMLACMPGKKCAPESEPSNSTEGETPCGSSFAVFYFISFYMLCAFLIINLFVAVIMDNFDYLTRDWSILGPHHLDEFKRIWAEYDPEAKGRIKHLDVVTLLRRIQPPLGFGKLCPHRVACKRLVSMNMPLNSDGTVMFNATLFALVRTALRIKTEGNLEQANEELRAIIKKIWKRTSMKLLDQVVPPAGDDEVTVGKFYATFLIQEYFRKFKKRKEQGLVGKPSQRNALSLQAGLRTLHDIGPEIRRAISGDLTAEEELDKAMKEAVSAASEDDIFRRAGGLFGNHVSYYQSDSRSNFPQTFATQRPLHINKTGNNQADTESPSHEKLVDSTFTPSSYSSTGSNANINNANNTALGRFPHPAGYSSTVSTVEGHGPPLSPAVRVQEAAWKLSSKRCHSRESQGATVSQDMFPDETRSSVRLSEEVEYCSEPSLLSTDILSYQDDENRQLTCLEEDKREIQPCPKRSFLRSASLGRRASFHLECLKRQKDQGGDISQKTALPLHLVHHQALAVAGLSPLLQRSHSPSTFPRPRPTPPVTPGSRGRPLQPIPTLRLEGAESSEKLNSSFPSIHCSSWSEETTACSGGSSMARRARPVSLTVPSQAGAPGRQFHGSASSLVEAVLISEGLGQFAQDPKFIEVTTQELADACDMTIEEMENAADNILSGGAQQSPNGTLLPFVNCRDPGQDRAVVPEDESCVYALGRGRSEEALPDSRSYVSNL
Chain of Adenosine Transporter (Q99808 whole entry): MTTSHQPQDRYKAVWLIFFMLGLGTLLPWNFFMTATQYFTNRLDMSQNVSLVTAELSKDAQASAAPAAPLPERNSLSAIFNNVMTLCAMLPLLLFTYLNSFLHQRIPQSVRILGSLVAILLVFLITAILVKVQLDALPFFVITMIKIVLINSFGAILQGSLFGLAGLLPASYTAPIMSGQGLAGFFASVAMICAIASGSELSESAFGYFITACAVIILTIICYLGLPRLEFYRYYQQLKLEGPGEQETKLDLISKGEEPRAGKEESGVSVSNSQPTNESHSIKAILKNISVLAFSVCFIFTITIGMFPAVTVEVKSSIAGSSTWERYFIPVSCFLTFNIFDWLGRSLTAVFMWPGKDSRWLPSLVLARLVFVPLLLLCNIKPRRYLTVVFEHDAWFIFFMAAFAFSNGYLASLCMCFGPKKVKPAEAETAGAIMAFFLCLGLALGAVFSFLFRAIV
T6 sequence (P29274 whole entry): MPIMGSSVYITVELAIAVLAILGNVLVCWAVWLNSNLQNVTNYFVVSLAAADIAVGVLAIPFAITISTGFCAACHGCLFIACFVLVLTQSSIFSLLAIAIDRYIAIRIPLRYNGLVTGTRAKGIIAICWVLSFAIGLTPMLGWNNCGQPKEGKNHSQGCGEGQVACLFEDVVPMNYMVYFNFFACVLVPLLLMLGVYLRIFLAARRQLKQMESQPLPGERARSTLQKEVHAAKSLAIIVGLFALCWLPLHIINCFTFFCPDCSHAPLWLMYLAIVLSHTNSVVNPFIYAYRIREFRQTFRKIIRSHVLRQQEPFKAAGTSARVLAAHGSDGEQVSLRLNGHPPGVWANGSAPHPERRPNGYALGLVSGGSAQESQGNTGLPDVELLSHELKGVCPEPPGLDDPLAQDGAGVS

SMILES: COC(=O)[C@H]1[C@@H](OC(=O)c2ccccc2)C[C@@H]2CC[C@H]1N2C [cocaine]
- inhibition at 10 µM [1]: 0.98%
- inhibition at 10 µM [2]: 12%
- inhibition at 10 µM [3]: 13.7%
- inhibition at 10 µM [4]: 26.8%
- inhibition at 10 µM [5]: 11.7%
- Pass 1 (10^−5 M) % Inhibition [6]: −19.14%
- inhibition at 10 µM [7]: 16.5%
- inhibition at 10 µM [8]: 1.13%
- Pass 1 (10^−5 M) % Inhibition [9]: 25.43%
- Pass 1 (10^−5 M) % Inhibition [10]: −1.39%
- inhibition at 10 µM [11]: 9.58%
- Pass 1 (10^−5 M) % Inhibition [12]: −7.60%
- inhibition at 10 µM [13]: 25.9%
- inhibition at 10 µM [14]: 3.57%
- inhibition at 10 µM [15]: 33.4%
- Pass 1 (10^−5 M) % Inhibition [16]: 6.27%
- Pass 1 (10^−5 M) % Inhibition [17]: 2.51%
- Pass 1 (10^−5 M) % Inhibition [18]: −4.65%
- inhibition at 10 µM [19]: 20.3%
- inhibition at 10 µM [20]: -11.2%
- Pass 1 (10^−5 M) % Inhibition [21]: −4.44%
- effects of high dosages ([22]; high dosages): euphoria, involuntary motor activity, stereotypic behavior, paranoia, and irritability and increased risk of violence
- effect on heart rate and blood pressure [22]: dosage dependent increase in heart rate and blood pressure
- Pass 1 (10^−5 M) % Inhibition [23]: −11.95%
- Pass 1 (10^−5 M) % Inhibition [24]: 11.51%
- Pass 1 (10^−5 M) % Inhibition [25]: −2.86%
- Pass 1 (10^−5 M) % Inhibition [26]: 5.85%
- inhibition at 10 µM [27]: -22.8%
- Pass 1 (10^−5 M) % Inhibition [28]: 24.90%
- inhibition at 10 µM [29]: 28.8%
- inhibition at 10 µM [30]: 60%
- inhibition at 10 µM [31]: 4.27%
- Ki [32]: 11.6 µM
- inhibition at 10 µM [32, 41]: 64.7%
- inhibition at 10 µM [33]: 23.3%
- inhibition at 10 µM [34]: -8.07%
- inhibition at 10 µM [35]: 7.63%
- inhibition at 10 µM [36]: 0.19%
- Pass 1 (10^−5 M) % Inhibition [37]: −4.60%
- inhibition at 10 µM [38]: 26.6%
- inhibition at 10 µM [39]: 4.48%
- Ki [40]: 0.321 µM
- inhibition at 10 µM [40, 41]: 91.4%
